This series relates to HBV (rAAV8-1.3HBV strain ayw, D type). Put plainly: Combination therapy study in AAV-HBV mice (Example 1): serum HBsAg and HBV DNA. Format: in vivo, C57BL/6 mice. As for the experimental part:
The mice (C57BL/6 strain) were inoculated with the following amount of rAAV8-1.3HBV strain ayw, D type: 1.0×10^11 viral genomes per mouse in 200 μl volume via tail veins injection. Four weeks after viral inoculation, treatment with test compounds was initiated.
Entecavir was administered orally once per day.

Turning to `C=C1[C@H](CO)[C@@H](O)C[C@@H]1n1cnc2c(=O)[nH]c(N)nc21` [ETV, entecavir, reference compound], the “HBsAg levels from mouse serum (average log HBsAg content)” value is 4.54 log IU/ml (Treatment 13: ETV 0.001 mg/kg, day 0 post-dose); 4.54 log IU/ml (Treatment 13: ETV 0.001 mg/kg, day 3 post-dose); 4.39 log IU/ml (Treatment 13: ETV 0.001 mg/kg, day 7 post-dose); 4.29 log IU/ml (Treatment 13: ETV 0.001 mg/kg, day 10 post-dose); 4.28 log IU/ml (Treatment 13: ETV 0.001 mg/kg, day 14 post-dose); 4.24 log IU/ml (Treatment 13: ETV 0.001 mg/kg, day 17 post-dose). Besides, the “HBsAg levels from mouse serum (average log HBsAg content)” value (Treatment 13: ETV 0.001 mg/kg, day 21 post-dose) is on record as 4.13 log IU/ml; the “HBsAg levels from mouse serum (average log HBsAg content)” value (Treatment 13: ETV 0.001 mg/kg, day 24 post-dose) came to 4.21 log IU/ml; the “HBsAg levels from mouse serum (average log HBsAg content)” value (Treatment 13: ETV 0.001 mg/kg, day 28 post-dose) was determined as 3.98 log IU/ml; the “HBsAg levels from mouse serum (average log HBsAg content)” value (Treatment 13: ETV 0.001 mg/kg, day 31 post-dose) is reported as 4.02 log IU/ml; the “HBsAg levels from mouse serum (average log HBsAg content)” value (Treatment 13: ETV 0.001 mg/kg, day 35 post-dose) was determined as 3.88 log IU/ml; the “HBsAg levels from mouse serum (average log HBsAg content)” value (Treatment 13: ETV 0.001 mg/kg, day 38 post-dose) turned out to be 3.92 log IU/ml. Besides, where the note is “Treatment 13: ETV 0.001 mg/kg, day 42 post-dose”, the “HBsAg levels from mouse serum (average log HBsAg content)” value amounted to 3.84 log IU/ml.
As for “HBV02: chemically synthesized double-stranded oligonucleotide (siRNA) linked to a ligand with three GalNAc residues; sense SEQ ID NO:7, antisense SEQ ID NO:8 (sense GUGUGCACUUCGCUUCACA; antisense UGUGAAGCGAAGUGCACACUU; triantennary GalNAc ligand attached, chemically modified, pattern not given here)”, the “Reduction of serum HBV DNA (viral load) relative to the saline control” value (AAV/HBV-infected C57BL/6 mice, HBV02 3 mg/kg, HBC34 antibody (HBC34-v7-mu-IgG2a) 15 mg/kg, alone or combined, FIGS. 2A, 2B) is ~0.5 log10. The “Reduction of serum HBsAg relative to the saline control” value (AAV/HBV-infected C57BL/6 mice, HBV02 3 mg/kg, HBC34 antibody (HBC34-v7-mu-IgG2a) 15 mg/kg, alone or combined, FIGS. 3A, 3B) is 1 log10. Moreover, the “HBsAg levels from mouse serum (average log HBsAg content)” value came out at 4.55 log IU/ml (Treatment 1: HBV02 3 mg/kg, day 0 post-dose); 3.99 log IU/ml (Treatment 1: HBV02 3 mg/kg, day 3 post-dose); 3.67 log IU/ml (Treatment 1: HBV02 3 mg/kg, day 7 post-dose); 3.59 log IU/ml (Treatment 1: HBV02 3 mg/kg, day 10 post-dose); 3.71 log IU/ml (Treatment 1: HBV02 3 mg/kg, day 14 post-dose); 3.69 log IU/ml (Treatment 1: HBV02 3 mg/kg, day 17 post-dose). Also, the “HBsAg levels from mouse serum (average log HBsAg content)” value (Treatment 1: HBV02 3 mg/kg, day 21 post-dose) is listed as 3.60 log IU/ml; the “HBsAg levels from mouse serum (average log HBsAg content)” value (Treatment 1: HBV02 3 mg/kg, day 24 post-dose) is on record as 3.57 log IU/ml; the “HBsAg levels from mouse serum (average log HBsAg content)” value (Treatment 1: HBV02 3 mg/kg, day 28 post-dose) was 3.57 log IU/ml; the “HBsAg levels from mouse serum (average log HBsAg content)” value (Treatment 1: HBV02 3 mg/kg, day 31 post-dose) was 3.81 log IU/ml; the “HBsAg levels from mouse serum (average log HBsAg content)” value (Treatment 1: HBV02 3 mg/kg, day 35 post-dose) was found to be 3.72 log IU/ml; the “HBsAg levels from mouse serum (average log HBsAg content)” value (Treatment 1: HBV02 3 mg/kg, day 38 post-dose) came to 3.72 log IU/ml. The “HBsAg levels from mouse serum (average log HBsAg content)” value (Treatment 1: HBV02 3 mg/kg, day 42 post-dose) was determined as 3.55 log IU/ml.
